Assay results taken from the supplement of paper PMC10307832.

How the values were obtained:
Test in all cases: relative viability (nuclei count vs DMSO), 5 days (fraction); higher = more cells survive
[1] = compound: C1CC(C2=C(C1)C3=C(N2)C=CC(=C3)Cl)C(=O)N [Selisistat] + C[C@@H](Oc1cc(-c2cnn(C3CCNCC3)c2)cnc1N)c1c(Cl)ccc(F)c1Cl [Crizotinib] (partner 1 µM)
Summary of the method: (§1)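 Lung cancer cell lines in 1536-well plates got either a single drug or a fixed anchor-drug dose together with five library-drug doses (not always all listed) in √10 steps, by pin tool, on the day after seeding. Nuclei were counted after 5 days, and relative viability is the treated-to-vehicle ratio of nuclei counts. Values are medians of duplicate plates.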

[2] = compound: C1CC(C2=C(C1)C3=C(N2)C=CC(=C3)Cl)C(=O)N [Selisistat] + Nc1ncn([C@H]2C[C@H](O)[C@@H](CO)O2)c(=O)n1 [Decitabine] (partner 2 µM)
Summary of the method: as §1

[3] = compound: c1ccc2c(CCNc3ccc(Nc4ccncc4)cc3)c[nH]c2c1 [Serdemetan] + Cc1cc(Nc2cc(N3CCN(C)CC3)nc(Sc3ccc(NC(=O)C4CC4)cc3)n2)n[nH]1 [Tozasertib] (partner 0.1 µM)
Summary of the method: as §1

[4] = compound: c1ccc2c(CCNc3ccc(Nc4ccncc4)cc3)c[nH]c2c1 [Serdemetan] + O=C(CCCCCCC(=O)Nc1ccccc1)NO [Vorinostat] (partner 1 µM)
Summary of the method: as §1

Cell Line	relative viability ([1]; first compound 0.4 µM)	relative viability ([1]; first compound 1.265 µM)	relative viability ([1]; first compound 4 µM)	relative viability ([1]; first compound 12.65 µM)	relative viability ([1]; first compound 40 µM)	relative viability ([2]; first compound 0.4 µM)	relative viability ([2]; first compound 1.265 µM)	relative viability ([2]; first compound 4 µM)	relative viability ([2]; first compound 12.65 µM)	relative viability ([2]; first compound 40 µM)	relative viability ([3]; first compound 0.04 µM)	relative viability ([3]; first compound 0.1265 µM)	relative viability ([3]; first compound 0.4 µM)	relative viability ([3]; first compound 4 µM)	relative viability ([4]; first compound 0.04 µM)	relative viability ([4]; first compound 0.1265 µM)	relative viability ([4]; first compound 0.4 µM)	relative viability ([4]; first compound 1.265 µM)	relative viability ([4]; first compound 4 µM)	relative viability ([3]; first compound 1.265 µM)
SK-LU-1	1.02	0.987	1.1	1.01	1.09	0.716	0.675	0.676	0.604	0.679	0.378	0.298	0.337	0.294	0.746	0.821	0.746	0.598	0.451	
ChaGo-K-1	1.15	1.04		1.08	1.09	0.486	0.511	0.482	0.491	0.502	0.231	0.232	0.2	0.167	0.741	0.697	0.77	0.329	0.331	0.178
COR-L 105	0.716	0.786	0.748	0.745	0.741	0.664	0.731	0.587	0.635	0.598	0.313	0.336	0.357	0.366	0.863	0.96	0.758	0.861	0.645	0.405
NCI-H1975	0.904	0.863	0.916	0.854	0.807	0.396	0.423	0.346	0.373	0.365	0.825	0.701	0.722	0.771	0.718	0.725	0.697	0.743	0.687	
NCI-H1993	0.803	0.92		0.987	0.854	0.647	0.597		0.655	0.546	0.578	0.579	0.592	0.562	0.935	0.609	0.669	0.767	0.782	0.568
RERF-LC-KJ	0.826	0.879	0.835	0.771	0.716	0.806	0.601	0.593	0.61	0.614	0.49	0.441	0.479	0.469	0.687	0.611	0.609	0.71	0.654	0.455
NCI-H23	0.515	0.474		0.468	0.473	0.303	0.32		0.328	0.355	0.436	0.413	0.358	0.265	0.664	0.695	0.643		0.517	0.305
HCC-366	0.58	0.681	0.4	0.521	0.562	0.383	0.31	0.33	0.356	0.324	0.134	0.0681	0.0532	0.042	0.351	0.166	0.191	0.047	0.0752	0.0456
EMC-BAC-2	0.78	0.74	0.742	0.582	0.755	1.11	0.897	0.931	0.933	0.683	0.246	0.298	0.248	0.217	0.463	0.471	0.495	0.379	0.399	0.22
NCI-H2405	0.825	0.807	0.787	0.833	0.832	0.881	0.78		0.748	0.697	0.7	0.704	0.734	0.662	0.968	0.973	0.91	0.788	0.846	0.659
NCI-H358	0.586	0.526		0.621	0.613	0.248	0.226	0.195	0.212	0.218	0.0807	0.105	0.111	0.0954	0.677	0.689	0.612	0.402	0.461	0.102
NCI-H1944	1.13	1.01		1.09	1.04	0.506	0.402	0.441	0.452	0.465	0.249	0.278	0.234	0.165	0.485	0.628	0.635	0.339	0.294	0.158
EPLC-272H	0.941	0.865		0.915	0.992	0.365	0.389		0.382	0.364	0.269	0.309	0.306	0.249	0.396	0.654	0.532	0.304	0.218	0.169
NCI-H1915	0.917	0.87	0.883	0.885	0.908	0.268	0.244	0.264	0.255	0.277	0.406	0.416	0.38	0.396	0.538	0.535	0.513	0.508	0.509	0.317
NCI-H596	1.11	0.898	0.853	0.991	0.905	1.07	1.02	0.862	1.09	1.07	0.825	0.787	0.774	0.34	0.568	0.543	0.578	0.428	0.425	0.513
NCI-H322M	0.959	1.01		0.903	1.15	0.812	0.708		0.747	0.637	0.447	0.457	0.484	0.437	0.798	0.906	0.857	0.806	0.854	0.35
NCI-H647	1.16	1		1.01	0.948	0.517	0.405	0.218	0.359	0.487	0.355	0.291	0.226	0.223	0.517	0.693	0.645	0.516	0.483	0.287
